Measured values taken from patent US20130323167A1, “DETECTING AND TREATING SOLID TUMORS THROUGH SELECTIVE DISRUPTION OF TUMOR VASCULATURE” (THE JOHNS HOPKINS UNIVERSITY, priority 2010, published 2013).

Key:
subcutaneous CT26 tumors = type: in vivo, BALB/c mice; details: injection of the agent instead of TNF-α
Protocol: All animal experiments were overseen and approved by the Animal Welfare Committee of Johns Hopkins University, and were in compliance with the University standards. For the subcutaneous tumor model, female, six to eight week-old BALB/c mice (Harlan Breeders) were used. Five million CT26 cells were injected subcutaneously into the right flank of each mouse and allowed to grow for ˜10 days before randomization, group assignment, and treatment. C. novyi-NT spores were administered by a bolus tail vein injection of 300 million spores suspended in 0.2 mL of phosphate buffered saline, pH 7.5 (PBS). Cytotoxic anticancer agents were administered 16 hours later via the same route. TNF-α was reconstituted freshly before administration in doubly-distilled H2O at 100 ng/mL and diluted into 0.1% (w/v) BSA in PBS at a final concentration of 10 ng/mL. Cytotoxic agents were injected within a few minutes thereafter. Tumor volume was calculated as […]. For the orthotopic brain tumor model, female C57BL6 mice, 5-6 weeks of age, were purchased from the NCI-Frederick. […] Animals were monitored for potential side effects following drug administration. […]

[1] = multiple injections (3 infusions/week) of a dose comparable to the highest mouse dose; cited from earlier work
CT26 tumors = assay: Treatment of fully developed subcutaneous CT26 tumors (tumor volume, survival); type: in vivo, BALB/c mice; details: TNF-α 25 ng/kg combined with Doxil or ^131I-labeled IgG
Protocol: For the subcutaneous tumor model, female, six to eight week-old BALB/c mice (Harlan Breeders) were used. Five million CT26 cells were injected subcutaneously into the right flank of each mouse and allowed to grow for ˜10 days before randomization, group assignment, and treatment. C. novyi-NT spores were administered by a bolus tail vein injection of 300 million spores suspended in 0.2 mL of phosphate buffered saline, pH 7.5 (PBS). Cytotoxic anticancer agents were administered 16 hours later via the same route. TNF-α was reconstituted freshly before administration in doubly-distilled H2O at 100 ng/mL and diluted into 0.1% (w/v) BSA in PBS at a final concentration of 10 ng/mL. Cytotoxic agents were injected within a few minutes thereafter. Tumor volume was calculated as length×width×0.5.

| Molecule | induction of E^2PR by microtubule-interacting agent (subcutaneous CT26 tumors) | tolerability in humans [1] | cures and survival at lower dose of TNF-α (CT26 tumors) |
| --- | --- | --- | --- |
| CCC1=C[C@@H]2CN(C1)Cc1c([nH]c3ccccc13)[C@@](C(=O)OC)(c1cc3c(cc1OC)N(C)[C@H]1[C@@](O)(C(=O)OC)[C@H](OC(C)=O)[C@]4(CC)C=CCN5CC[C@]31[C@@H]54)C2 [vinorelbine] | resulted in E^2PR, though not as impressively as TNF-α |  |  |
| COc1ccc(/C=C\c2cc(OC)c(OC)c(OC)c2)cc1OP(=O)(O)O [Combretastatin A4P, combretastatin A4 phosphate] | resulted in E^2PR, though not as impressively as TNF-α |  |  |
| TNF-α |  | tolerate | none of the treated animals were cured, although prolonged survival was observed |
